Here are results for four compounds from patent publication US12201640B2, “19-nor C3,3-disubstituted C21-n-pyrazolyl steroids and methods of use thereof” (Sage Therapeutics, Inc., priority 2013, dated 2025).

Usually IC50 stands for the concentration at which inhibition is half-maximal. The EC50 is the concentration that produces a half-maximal response.

The structures appear in SMILES notation. Where only a bound is given, the exact number is not on record here.

Experiment [1] addresses [35S]-TBPS binding, rat brain cortical membranes (GABA receptor complex). As to the kind of experiment: Steroid inhibition of [35S]-TBPS binding. The following applies: 3 nM [35S]-TBPS, 5 μM GABA. How it is done: Steroid Inhibition of TBPS Binding
[35S]-t-Butylbicyclophosphorothionate (TBPS) binding assays using rat brain cortical membranes in the presence of 5 μM GABA has been described (Gee et al, J. Pharmacol. Exp. Ther. 1987, 241, 346-353; Hawkinson et al, Mol. Pharmacol. 1994, 46, 977-985; Lewin, A. H et al., Mol. Pharmacol. 1989, 35, 189-194).
Briefly, cortices are rapidly removed following decapitation of carbon dioxide-anesthetized Sprague-Dawley rats (200-250 g). The cortices are homogenized in 10 volumes of ice-cold 0.32 M sucrose using a glass/teflon homogenizer and centrifuged at 1500×g for 10 min at 4° C. The resultant supernatants are centrifuged at 10,000×g for 20 min at 4° C. to obtain the P2 pellets. The P2 pellets are resuspended in 200 mM NaCl/50 mM Na-K phosphate pH 7.4 buffer and centrifuged at 10,000×g for 10 min at 4° C. This washing procedure is repeated twice and the pellets are resuspended in 10 volumes of buffer. Aliquots (100 μL) of the membrane suspensions are incubated with 3 nM [^35S]-TBPS and 5 μL aliquots of test drug dissolved in dimethyl sulfoxide (DMSO) (final 0.5%) in the presence of 5 μM GABA. The incubation is brought to a final volume of 1.0 mL with buffer. Nonspecific binding is determined in the presence of 2 μM unlabeled TBPS and ranged from 15 to 25%. Following a 90 min incubation at room temp, the assays are terminated by filtration through glass fiber filters (Schleicher and Schuell No. 32) using a cell harvester (Brandel) and rinsed three times with ice-cold buffer. Filter bound radioactivity is measured by liquid scintillation spectrometry. Non-linear curve fitting of the overall data for each drug averaged for each concentration is done using Prism (GraphPad). […] The concentration of test compound producing 50% inhibition (IC50) of specific binding and the maximal extent of inhibition (Imax) are determined for the individual experiments with the same model used for the overall data and then the means±SEM.s of the individual experiments are calculated.
Various compounds are or can be screened to determine their potential as modulators of [^35S]-TBPS binding in vitro. These assays are or can be performed in accordance with the above discussed procedures.

A further experiment deals with T1, GABAA-R (Homo sapiens, UniProt P14867+P47870).
T1 sequence (P14867 1-456): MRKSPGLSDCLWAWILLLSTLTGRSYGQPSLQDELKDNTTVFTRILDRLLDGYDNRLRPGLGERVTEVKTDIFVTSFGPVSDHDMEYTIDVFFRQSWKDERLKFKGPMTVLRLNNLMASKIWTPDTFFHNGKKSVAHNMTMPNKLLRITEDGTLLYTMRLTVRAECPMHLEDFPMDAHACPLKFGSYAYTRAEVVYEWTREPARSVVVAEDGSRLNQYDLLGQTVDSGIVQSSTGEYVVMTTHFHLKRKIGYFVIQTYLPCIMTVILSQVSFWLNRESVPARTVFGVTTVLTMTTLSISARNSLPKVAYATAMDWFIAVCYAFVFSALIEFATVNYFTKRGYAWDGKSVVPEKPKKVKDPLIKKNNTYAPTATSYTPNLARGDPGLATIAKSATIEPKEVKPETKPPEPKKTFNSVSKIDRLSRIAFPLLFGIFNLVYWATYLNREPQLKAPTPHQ
T1 sequence (P47870 1-512): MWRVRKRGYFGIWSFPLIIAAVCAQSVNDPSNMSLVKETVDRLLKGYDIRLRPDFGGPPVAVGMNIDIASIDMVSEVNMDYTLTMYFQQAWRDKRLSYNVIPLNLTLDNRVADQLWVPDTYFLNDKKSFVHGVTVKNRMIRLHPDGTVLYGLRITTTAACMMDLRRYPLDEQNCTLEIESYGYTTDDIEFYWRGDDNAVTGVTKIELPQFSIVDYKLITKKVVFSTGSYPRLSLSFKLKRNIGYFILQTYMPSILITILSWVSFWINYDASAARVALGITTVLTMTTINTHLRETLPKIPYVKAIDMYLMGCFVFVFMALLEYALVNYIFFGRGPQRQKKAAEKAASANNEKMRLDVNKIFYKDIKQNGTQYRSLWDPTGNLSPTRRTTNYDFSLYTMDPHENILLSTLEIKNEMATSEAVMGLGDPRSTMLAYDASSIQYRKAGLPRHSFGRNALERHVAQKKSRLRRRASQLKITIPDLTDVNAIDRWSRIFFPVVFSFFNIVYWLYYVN
As to the kind of experiment: Electrophysiological evaluation at GABAA-R (Table 2). The format is cell-based. Conditions: GABAA-R electrophysiology; for EC50: read-out: EC50. How it is done:
(§1) Patch Clamp Electrophysiology of Recombinant α1β2γ2 and α4β3δ GABAA Receptors
(§2) Cellular electrophysiology is used to measure the pharmacological properties of our GABAA receptor modulators in heterologous cell systems. Each compound is tested for its ability to affect GABA mediated currents at a submaximal agonist dose (GABA EC20=2 μM). LTK cells are stably transfected with the α1β2γ2 subunits of the GABA receptor and CHO cells are transiently transfected with the α4β3δ subunits via the Lipofecatamine method. Cells were passaged at a confluence of about 50-80% and then seeded onto 35 mm sterile culture dishes containing 2 ml culture complete medium without antibiotics or antimycotics. Confluent clusters of cells are electrically coupled (Pritchett et al., Science, 1988, 242, 1306-1308.). Because responses in distant cells are not adequately voltage clamped and because of uncertainties about the extent of coupling (Verdoorn et al., Neuron 1990, 4, 919-928.), cells were cultivated at a density that enables the recording of single cells (without visible connections to other cells).
(§3) Whole cell currents were measured with HEKA EPC-10 amplifiers using PatchMaster software or by using the high throughput QPatch platform (Sophion). Bath solution for all experiments contained (in mM): NaCl 137 mM, KCl 4 mM, CaCl2 1.8 mM, MgCl2 1 mM, HEPES 10 mM, D-Glucose 10 mM, pH (NaOH) 7.4. In some cases 0.005% cremophor was also added. Intracellular (pipette) solution contained: KCl 130 mM, MgCl2 1 mM, Mg-ATP 5 mM, HEPES 10 mM, EGTA 5 mM, pH 7.2. During experiments, cells and solutions were maintained at room temperature (19° C.-30° C.). For manual patch clamp recordings, cell culture dishes were placed on the dish holder of the microscope and continuously perfused (1 ml/min) with bath solution. After formation of a Gigaohm seal between the patch electrodes and the cell (pipette resistance range: 2.5 MΩ-6.0 MΩ; seal resistance range: >1 GΩ) the cell membrane across the pipette tip was ruptured to assure electrical access to the cell interior (whole-cell patch-configuration). For experiments using the QPatch system, cells were transferred as suspension to the QPatch system in the bath solution and automated whole cell recordings were performed.
(§4) Cells were voltage clamped at a holding potential of −80 mV. For the analysis of test articles, GABA receptors were stimulated by 2 μM GABA after sequential pre-incubation of increasing concentrations of the test article. Pre-incubation duration was 30 s and the duration of the GABA stimulus was 2 s. Test articles were dissolved in DMSO to form stock solutions (10 mM). Test articles were diluted to 0.01, 0.1, 1, and 10 μM in bath solution. All concentrations of test articles were tested on each cell. The relative percentage potentiation was defined as the peak amplitude in response to GABA EC20 in the presence of the test article divided by the peak amplitude in response to GABA EC20 alone, multiplied by 100.

The next experiment deals with T2, GABAA receptor α1β2γ2 (Homo sapiens, UniProt P14867+P47870).
T2 construct: expressed in transfected cells
As to the kind of experiment: Patch clamp electrophysiology, Qpatch in Ltk cells. Type of experiment: cell-based. Conditions: 10 μM test article, GABA EC20 2 μM, read-out: GABA (α1β2γ2) Qpatch in Ltk, % efficacy at 10 μM. How it is done: as §1, §2, §3, §4
(Patch clamp records ionic current or voltage across a cell membrane.)

Another experiment addresses T3, GABAA receptor α4β3δ (Homo sapiens, UniProt P28472+P48169).
T3 construct: expressed in transfected cells; host or cells: CHO cells (transient, lipofection)
In words: Patch clamp electrophysiology, manual patch in CHO cells. Conditions: 10 μM test article, GABA EC20 2 μM, read-out: GABA (α4β3δ) Manual patch in CHO, % efficacy at 10 μM. Type of experiment: cell-based. On the procedure: as §1, §2, §3, §4

The next experiment has as its system male Sprague Dawley rats. As to the kind of experiment: Loss of righting reflex in rats. The format is in vivo. The following applies: Rat IV, 5 mpk. On the procedure:
Loss of Righting Reflex in Rats
The plasma pharmacokinetics and a qualitative assessment of sedation were obtained in male
Sprague Dawley rats according to the following procedure. Rats were dosed by intravenous bolus dose (60 seconds) via the foot dorsal vein at doses ranging from 5 to 15 mg/kg in an appropriate vehicle. In order to assess sedation, rats were gently restrained by hand to a lateral position for dose administration. […] If the animal was unable to return to an upright position, the time was recorded as the onset of loss of righting reflex (LRR). […] Sluggish or incomplete righting twice consecutively within a 30 second interval qualifies as a loss of righting reflex. After onset of LRR, animals were assessed every 5 minutes in the same manner. Recovery of righting reflex is defined as the ability of a rat to right itself completely within 20 seconds of being placed in dorsal recumbency. The duration of LRR is defined as the time interval between LRR and the return of righting reflex.

A further experiment concerns PTZ-treated mice. As to the kind of experiment: Acute PTZ (pentylenetetrazol-induced seizure) assay in mice. Conditions: PO, latency to tonic seizures. The format is in vivo, mouse. How it is done:
The anticonvulsant effect of test compounds were assessed in the pentylenetetazol-induced seizure assay in mice similar to methods described in Giardina & Gasior (2009) Curr Protoc Pharmacol., Chapter 5. Male CD-1 mice were housed in groups of five under controlled conditions (temperature of 22±2° C. and 12:12 light-dark cycle, lights on at 8:00 am) and water and food were available ad libitum. The mice were housed for 1 week prior to behavioral testing, at which time they weighed 25-35 g. Pentylenetetrazol (PTZ, Sigma) was dissolved in sterile 0.9% saline at a concentration of 12 mg/mL concentration for subcutaneous administration. Test compounds were formulated and administered via oral gavage or intraperitoneal injection at a predetermined time-point (typically 30 or 60 minutes) prior to PTZ injection. All solutions were made fresh and were given in a volume of 10 ml/kg body weight.
Mice were acclimated to the test room for at least 30 min before compound administration. Mice were randomized into at least four test groups (vehicle and at least three doses of the test compound) with 10 mice per group. […] Following the drug pretreatment time the mice were injected s.c. with PTZ (120 mg/kg). Immediately following the PTZ injection, mice were individually placed into observation chambers (25×15×15 cm) and a three-channel timer was started. Each mouse was continuously observed for 30 min and the following behaviors were recorded by observers blinded to the treatments: 1) latency to clonic convulsions that persist for 3 sec and followed by an absence of righting reflex 2) latency to tonic convulsions, characterized by the rigid extension of all four limbs that exceeded a 90 degree angle with the body 3) latency to death 4) number of clonic and tonic convulsions. Data are presented as mean±S.E.M and one-way analysis of variance with Dunnett's or Bonferroni's post-hoc test was used to detect significant differences in latency and number between the vehicle and dose group. p values<0.05 were regarded as statistically significant.

T2 sequence (P18507 40-475 partner, one chain of several): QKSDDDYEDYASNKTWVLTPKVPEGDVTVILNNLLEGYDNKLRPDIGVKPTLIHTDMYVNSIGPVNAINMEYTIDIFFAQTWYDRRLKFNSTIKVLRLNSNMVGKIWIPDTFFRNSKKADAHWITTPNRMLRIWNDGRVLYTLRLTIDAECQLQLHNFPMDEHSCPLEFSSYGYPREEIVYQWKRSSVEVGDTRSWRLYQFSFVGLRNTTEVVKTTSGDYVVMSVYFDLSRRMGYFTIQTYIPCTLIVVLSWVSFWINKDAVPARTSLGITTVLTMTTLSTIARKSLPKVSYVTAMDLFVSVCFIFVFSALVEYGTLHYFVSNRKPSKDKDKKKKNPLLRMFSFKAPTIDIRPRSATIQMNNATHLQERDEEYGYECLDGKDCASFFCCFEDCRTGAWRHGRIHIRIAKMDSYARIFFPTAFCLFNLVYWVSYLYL
T3 sequence (P48169 36-554): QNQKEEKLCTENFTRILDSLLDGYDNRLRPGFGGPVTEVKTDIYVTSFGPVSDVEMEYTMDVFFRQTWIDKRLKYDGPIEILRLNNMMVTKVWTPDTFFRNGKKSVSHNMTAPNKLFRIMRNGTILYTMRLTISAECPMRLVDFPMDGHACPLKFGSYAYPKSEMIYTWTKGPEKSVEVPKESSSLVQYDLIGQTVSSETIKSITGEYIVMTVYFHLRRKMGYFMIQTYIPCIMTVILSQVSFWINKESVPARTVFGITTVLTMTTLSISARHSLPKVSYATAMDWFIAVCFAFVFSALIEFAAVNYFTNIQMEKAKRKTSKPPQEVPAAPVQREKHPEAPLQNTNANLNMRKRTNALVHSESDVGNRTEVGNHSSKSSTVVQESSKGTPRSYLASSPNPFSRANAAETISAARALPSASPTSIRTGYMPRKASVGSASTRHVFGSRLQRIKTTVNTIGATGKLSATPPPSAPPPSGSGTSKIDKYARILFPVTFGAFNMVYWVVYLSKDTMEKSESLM
T3 sequence (P28472 26-473): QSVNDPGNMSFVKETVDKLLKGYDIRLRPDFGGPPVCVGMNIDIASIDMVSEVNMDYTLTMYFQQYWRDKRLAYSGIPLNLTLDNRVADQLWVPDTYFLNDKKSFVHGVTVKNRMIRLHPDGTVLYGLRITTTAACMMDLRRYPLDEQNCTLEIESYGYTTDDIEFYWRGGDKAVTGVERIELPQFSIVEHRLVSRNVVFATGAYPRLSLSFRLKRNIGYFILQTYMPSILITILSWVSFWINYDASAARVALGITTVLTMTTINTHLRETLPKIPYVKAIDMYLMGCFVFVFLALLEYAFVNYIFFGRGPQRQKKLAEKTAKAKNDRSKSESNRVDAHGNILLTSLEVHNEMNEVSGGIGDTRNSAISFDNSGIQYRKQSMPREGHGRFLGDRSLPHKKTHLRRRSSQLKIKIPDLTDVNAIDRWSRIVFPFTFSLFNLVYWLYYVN
T3 sequence (O14764 25-452 partner): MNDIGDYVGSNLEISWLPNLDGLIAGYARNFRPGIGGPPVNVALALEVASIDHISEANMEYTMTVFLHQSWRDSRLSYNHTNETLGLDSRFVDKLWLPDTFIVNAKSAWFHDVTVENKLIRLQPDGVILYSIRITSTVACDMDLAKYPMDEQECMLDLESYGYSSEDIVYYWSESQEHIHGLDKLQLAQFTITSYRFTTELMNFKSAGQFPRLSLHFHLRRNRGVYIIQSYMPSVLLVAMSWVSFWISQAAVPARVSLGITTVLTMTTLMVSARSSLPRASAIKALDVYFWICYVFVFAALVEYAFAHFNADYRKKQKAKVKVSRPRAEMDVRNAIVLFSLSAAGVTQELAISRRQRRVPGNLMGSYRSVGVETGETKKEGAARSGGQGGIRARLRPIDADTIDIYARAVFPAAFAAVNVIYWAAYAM

`C[C@@]1(O)CC[C@H]2[C@H](CC[C@@H]3[C@@H]2CC[C@]2(C)[C@@H](C(=O)Cn4cc(Cl)cn4)CC[C@@H]32)C1` [SA-7] yielded an IC50 in experiment [1] of 10 to 50 nM. Besides, on GABAA-R, the Emax was 0 to 500% and the EC50 is 1000 to 2000 nM. Further, the Emax at 10 µM on GABAA receptor α1β2γ2 is more than 500%. Besides, the Emax at 10 µM on GABAA receptor α4β3δ was more than 500%.

For the compound `C[C@@]1(O)CC[C@H]2[C@H](CC[C@@H]3[C@@H]2CC[C@]2(C)[C@@H](C(=O)Cn4cc(Br)cn4)CC[C@@H]32)C1` [SA-9], in experiment [1], the IC50 was in the range of 10 to 50 nM. The Emax at GABAA-R was in the range of 0 to 500%. In addition, the half-maximal effective concentration (EC50) at GABAA-R lay in the range of 100 to 500 nM. The Emax at 10 µM on GABAA receptor α1β2γ2 is 100 to 500%; at GABAA receptor α4β3δ, more than 500%.

Regarding `C[C@@]1(O)CC[C@H]2[C@H](CC[C@@H]3[C@@H]2CC[C@]2(C)[C@@H](C(=O)Cn4ccc(C#N)n4)CC[C@@H]32)C1` [SA-22], the Emax at 10 µM at GABAA receptor α1β2γ2 was more than 500%; on GABAA receptor α4β3δ it was 100 to 500%. In addition, the “Duration of Rat LRR” value with male Sprague Dawley rats is recorded as “B (15-60 min)”. In addition, in the experiment with PTZ-treated mice, the “Anticonvulsive Effect Dose (minimal effective anticonvulsant dose)” value is on record as “A (PO) (<3 mpk)”.

On to `C[C@@]1(O)CC[C@H]2[C@H](CC[C@@H]3[C@@H]2CC[C@]2(C)[C@@H](C(=O)Cn4cc(S(C)(=O)=O)cn4)CC[C@@H]32)C1` [SA-17], for which the Emax at 10 µM at GABAA receptor α1β2γ2 and on GABAA receptor α4β3δ was 100 to 500% each time. Besides, the “Anticonvulsive Effect Dose (minimal effective anticonvulsant dose)” value in the experiment on PTZ-treated mice is listed as “A (PO) (<3 mpk)”.
